According to patent US4795639A, “Potentiating formulations” (priority 1971, dated 1989):
“And” between values parts separate entries of the source, which are not always exact repeats. Equal values may be shown once.

Assays:
[1] = biological target: T1, hydroxymethyldihydropteridine pyrophosphokinase (HMPPS) (Escherichia coli, UniProt P26281); assay: HMPPS assay: transfer of terminal phosphate of ATP-γ-P^32 to Pt; format: biochemical, E. coli; conditions: read-out: IC50
T1 construct: obtained from an extract of E. coli; endogenous in cells; host or cells: E. coli extract; HMPPS separated from synthetase on Sephadex G-100 (method of Richey and Brown 1969)
T1 sequence (P26281 whole entry): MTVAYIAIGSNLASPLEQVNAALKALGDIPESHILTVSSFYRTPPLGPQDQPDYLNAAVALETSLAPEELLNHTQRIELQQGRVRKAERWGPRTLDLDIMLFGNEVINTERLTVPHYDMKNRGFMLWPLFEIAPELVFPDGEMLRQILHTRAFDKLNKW
From the text: (a) An assay for HMPPS was developed in which the transfer of the terminal phosphate of ATP-γ-P^32 to Pt could be monitored and correlated with the amount of inhibition of HMPPS by the compound under test.
The compound under test was incorporated into various formulations comprising metabolites and enzymes contained in test tubes, as indicated in TABLE 1.
II--a source of HMMP S, obtained from an extract of E. coli and separated from `synthetase` on Sephadex G-100, according to the method of Richey and Brown in J. Biol. Chem. 244, 1582-1592 (1969)
Control tubes 10 to 12 include a source of both HMPPS and synthetase, unlabelled ATP, 0.1M MgCl2.6H2 O and labelled pAB.
Tubes 1 to 9 containing the amounts of components shown in the Table, were filled up to 200 μl with distilled water, incubated for 60 minutes at 37° C. and then chilled on ice. Dextrose (20 μl containing 72.1 mg/ml) and hexokinase (5 μl containing 2000 units/ml) were added to the solution, which was then allowed to stand at room temperature for 15 minutes. `Darco-G-60` (Registered Trade Mark) (10 mg) was added to each tube and the contents mixed periodically for 10 minutes. The charcoal was removed through a "Millipore AP 250 2200" (Registered Trade Mark) filter and the filter was washed with three 10 ml portions of cold water. The Charcoal and the filter were then radioactively counted.
The radioactive count from the contents of tubes 2 and 3 was taken as the maximum count, since these tubes contained no test compound and thus gave 0% enzyme inhibition. The percentage inhibition produced by the contents of the remaining tubes could then be calculated by relating their radioactive count to the maximum, as determined above.

[2] = test system: coccidiosis; assay: potentiating effect against coccidiosis; format: in vivo; conditions: replacement of DMHP
[3] = test system: Staphylococcus aureus N 491; assay: growth rate inhibition, turbidometric, Wellcome Nutrient Broth; format: cell-based
[4] = test system: Staphylococcus aureus; assay: microbe, parasite or virus in culture; conditions: for Percentage of inoculum viable at 24 hrs.: DMHP Nil, Test 2
Description: The results are shown in Table 9 in which the bactericidal activity is expressed as the percentage of the original inoculum, measured by viable counts, which was alive after 24-hours' incubation at 37° C. The inoculum used gave a final concentration of 10^6 organisms per ml.

[5] = test system: Staphylococcus aureus CN 491; assay: testing discs on standard nutrient medium; format: cell-based; conditions: per 6 mm filterpaper disc: TMP 1.25 μg, SMX 23.75 μg, DMHP 100 μg, as in label
[6] = test system: Streptococcus faecalis CN 478; assay: testing discs on standard nutrient medium; format: cell-based; conditions: per 6 mm filterpaper disc: TMP 1.25 μg, SMX 23.75 μg, DMHP 100 μg, as in label
[7] = test system: Proteus vulgaris CN 329; assay: testing discs on standard nutrient medium; format: cell-based; conditions: per 6 mm filterpaper disc: TMP 1.25 μg, SMX 23.75 μg, DMHP 100 μg, as in label
[8] = test system: Escherichia coli CN 314; assay: testing discs on standard nutrient medium; format: cell-based; conditions: per 6 mm filterpaper disc: TMP 1.25 μg, SMX 23.75 μg, DMHP 100 μg, as in label
[9] = test system: Pseudomonas aeruginosa CN 200; assay: testing discs on standard nutrient medium; format: cell-based; conditions: per 6 mm filterpaper disc: TMP 1.25 μg, SMX 23.75 μg, DMHP 100 μg, as in label
[10] = test system: Pasteurella multocida; assay: Pasteurella multocida infection in chicks; format: in vivo; conditions: for Cumulative Mortality on day 1: groups of 10 chicks, 15:85 TMP SQX p.p.m / DMHP p.p.m: b654 25/20, b655 25/10, b656 25/5, b657 12.5/20, b658 12.5/10, b659 12.5/5, b660 50/-, b661 25/-, b662 12.5/-, b665 TMP 15, b666 TMP 30, b667 SQX 85, b669 SQX 42.5
[11] = test system: E. tenella; assay: coccidiosis screening test in chicks, E. tenella; format: in vivo, Eimeria tenella; conditions: Expt. 4; 100,000 oocysts; p.p.m SQX/DV/DMHP: b374 10/-/-; b375 -/20/-; b376 -/-/10; b377 10/-/10; b378 -/20/10; b379 10/20/-; b381 10/20/10; b382 20/-/-; b383 -/40/-; b384 -/-/20; b385 20/-/20; b386 -/40/20; b387 20/40/-; b389 20/40/20
Description: "Screening tests" were performed to establish the effectiveness of the compounds of formula (I) both alone and in combination with a competitor and or an inhibitor and to determine the most useful levels of relative concentrations of each component in combatting or suppressing coccidiosis.
Groups of Ranger cockerels, housed in small, heated cages with wire floors situated in enironmentally controlled isolation rooms, were infected orally with sporulated oocysts of the Eimeria spp such as E. tenella or E. acervulina. The appropriate test compound(s), (DMHP, sulphaquinoxaline (SQX) or diaveridine (DV) or any combination of these) were incorporated in a small quantity of specially formulated laboratory ration deficient in Vitamin K (`L.D.4 mash`), as a 1/10 pre-mix, which was then mixed into the diet on a horizontal roller drum mixed and administered to groups of chicks one day prior to infection, leaving some groups as untreated controls. Administration was continued for several days, for example about 8 or 9 days.
The amount of damage, marked by lesions in the caecal walls was investigated in those chicks that died during the course of the experiment, and in those sacrificed on the final day of administration, and compared with the untreated controls as a basis for the determination of therapeutic activity. In addition the mortality rate and the percentage weight gains in the various groups were assessed. A marked or definite effect of the administered drug could be recognised even when the mortality rates were similar or identical, since the increase in the weight gains and the reduction of the extension of lesions indicated by the lesion score, is characteristic of an improvement. […]
4:1 sulphaquinoxaline/diaveridine mixtures at levels of 80/20, 60/15, 40/10 and 20/5 p.p.m. were administered alone and in combination with a wide range of low concentrations of DMHP to the birds.
The results of these screening tests are set forth in Table 4 showing the concentration of the various component compounds in parts per million of the bird's diet, the mortality from coccidiosis, the percentage weight gain, the lesion score the oocyst output, and the activity. The caecal lesion index is calculated using a score system where: […]
In addition a score of 4 is assigned to any bird that dies of coccidiosis during the experiment. [formula] In the activity column, +++, ++, +, ± and - relate respectively to very high, high, slight, doubtful and nil activity of the test drug against the Eimeria infection.

[12] = Staphylococcus aureus, N491, 7 h, read-out: Percentage of inhibition at 7 hrs.
[13] = Staphylococcus aureus, 24 h, read-out: Percentage of inoculum viable at 24 hrs.
[14] = Table 6, doses as in E56, listed as TMP

CC1=Nc2c(O)nc(N)nc2NC1(C)C [R=Me, R^1=Me, R^2=Me, 2-Amino-4-hydroxy-6-methyl-7,7-dimethyl-7,8-dihydropteridine]
IC50 [1]: 75 µM | potentiating effect against coccidiosis [2]: noticeable, athough less marked potentiating effect

COc1cc(Cc2cnc(N)nc2N)cc(OC)c1OC [Trimethoprim, 2,4-diamino-5-(3'4',5'-trimethoxybenzyl)pyrimidine]
Percentage of inhibition at 7 hrs. [3]: 6 and 12 | inhibition at 0.002 µg/mL [3, 12]: 10% | inhibition at 0.004 µg/mL [3, 12]: 8% | viability at 0.3 µg/mL [4, 13]: > 100% | viability at 1 µg/mL [4, 13]: > 100% | Percentage of inoculum viable at 24 hrs. ([4]; Trimethoprim 0.3 μg./ml): > 100% | Percentage of inoculum viable at 24 hrs. ([4]; Trimethoprim 1.0 μg./ml): > 100% | Size of zone in cm (×6 magnification) [5]: 21 cm | Size of zone in cm (×6 magnification) [6]: 28 cm | Size of zone in cm (×6 magnification) [7]: 19 cm | Size of zone in cm (×6 magnification) [8]: 34 cm | Size of zone in cm (×6 magnification) [9]: 0 cm | Cumulative Mortality on day 4 ([10]; Table 6, doses as in E56): 8 | Cumulative Mortality on day 6 ([10]; Table 6, doses as in E56): 10 | Cumulative Mortality on day 2 [10, 14]: 4 and 2 | Cumulative Mortality on day 3 [10, 14]: 4 and 5 | Cumulative Mortality on day 5 [10, 14]: 10 and 8 | Cumulative Mortality on day 1 ([10]; Table 6): 0

Nc1ccc(S(=O)(=O)Nc2cnc3ccccc3n2)cc1 [SQX, sulphaquinoxaline]
activity alone against Pasteurella multocida ([10]; Example 3 Experiment 1): good activity alone | Average Weight of surviving chicks ([10]; Table 5, doses as in E44): 259.5 gm and 234.0 gm | Cumulative Mortality on day 5 ([10]; Table 5, doses as in E44): 1 | Cumulative Mortality on day 6 ([10]; Table 5, doses as in E44): 1 | Cumulative Mortality on day 7 ([10]; Table 5, doses as in E44): 1 | Cumulative Mortality on day 8 ([10]; Table 5, doses as in E44): 1 | Cumulative Mortality on day 9 ([10]; Table 5, doses as in E44): 1 | Cumulative Mortality on day 10 ([10]; Table 5, doses as in E44): 1 | Weight gain (% of control) ([10]; Table 5, percentage of uninfected controls, doses as in E44): 84 % of control and 69 % of control | Cumulative Mortality on day 6 ([10]; Table 6, doses as in E56): 1 | Cumulative Mortality on day 7 ([10]; Table 6, doses as in E56): 1 | Cumulative Mortality on day 8 ([10]; Table 6, doses as in E56): 1 | Cumulative Mortality on day 9 ([10]; Table 6, doses as in E56): 1 | Cumulative Mortality on day 10 ([10]; Table 6, doses as in E56): 1 | Cumulative Mortality on day 11 ([10]; Table 6, doses as in E56): 1 | Cumulative Mortality on day 1 ([10]; Table 6): 0 | Mortality from Coccidiosis [11]: 8/10 and 9/10
